Results: ChEMBL document CHEMBL1777745, “Non-oxime pyrazole based inhibitors of B-Raf kinase” (Bioorg Med Chem Lett, 2011)

Experiments:
[1] = target: T1, Serine/threonine-protein kinase B-raf (Homo sapiens, UniProt P15056); test: Inhibition of B-Raf
[2] = target: T1, Serine/threonine-protein kinase B-raf; test: Inhibition of B-Raf-mediated ERK phosphorylation in cell-based assay
Caco-2 = test: Efflux ratio of apparent permeability from […] in human Caco2 cells; assay type: ADME, cell-based
[3] = Apparent permeability from apical to basolateral side in human Caco2 cells; assay type: ADME, cell-based; details: caco-2
[4] = AUC in CD-1 mouse at 100 mg/kg, po; assay type: ADME, organism-based; design: dose 100 mg/kg, route oral; details: plasma
[5] = AUC in CD-1 mouse at 25 mg/kg, po; assay type: ADME, organism-based; design: dose 25 mg/kg, route oral; details: plasma
[6] = AUC in CD-1 mouse at 2.5 mg/kg, iv; assay type: ADME, organism-based; design: dose 2.5 mg/kg, route intravenous; details: plasma
[7] = Volume of distribution at steady state in CD-1 mouse at 2.5 mg/kg, iv; assay type: ADME, organism-based; design: dose 2.5 mg/kg, route intravenous; details: in vivo, read-out: Vdss
[8] = AUC in CD-1 mouse at 50 mg/kg, po; assay type: ADME, organism-based; design: dose 50 mg/kg, route oral; details: plasma
[9] = Clearance in CD-1 mouse at 2.5 mg/kg, iv; assay type: ADME, organism-based; design: dose 2.5 mg/kg, route intravenous; details: in vivo

T1 sequence (P15056 whole entry): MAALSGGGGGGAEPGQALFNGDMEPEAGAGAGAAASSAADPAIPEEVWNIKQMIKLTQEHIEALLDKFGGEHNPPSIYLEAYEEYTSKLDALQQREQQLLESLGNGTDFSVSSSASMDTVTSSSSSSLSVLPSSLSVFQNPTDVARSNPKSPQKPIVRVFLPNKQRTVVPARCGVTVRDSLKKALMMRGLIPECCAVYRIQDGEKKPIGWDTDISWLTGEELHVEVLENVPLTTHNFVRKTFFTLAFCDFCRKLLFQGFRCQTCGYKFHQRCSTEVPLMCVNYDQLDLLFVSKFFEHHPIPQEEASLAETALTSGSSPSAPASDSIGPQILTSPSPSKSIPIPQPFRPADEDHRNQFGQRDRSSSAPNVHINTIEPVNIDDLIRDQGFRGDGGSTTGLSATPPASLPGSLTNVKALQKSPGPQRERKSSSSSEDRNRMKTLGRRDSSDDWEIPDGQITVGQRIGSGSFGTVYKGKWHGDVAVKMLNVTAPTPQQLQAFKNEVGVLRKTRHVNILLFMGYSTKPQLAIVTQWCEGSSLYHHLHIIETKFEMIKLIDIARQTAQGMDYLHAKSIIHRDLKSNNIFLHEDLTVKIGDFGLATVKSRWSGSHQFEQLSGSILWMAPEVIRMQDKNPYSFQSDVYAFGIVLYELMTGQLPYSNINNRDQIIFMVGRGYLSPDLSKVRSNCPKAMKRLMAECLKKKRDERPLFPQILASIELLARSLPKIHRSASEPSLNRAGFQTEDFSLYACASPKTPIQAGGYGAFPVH

Row | IC50 [1] [µM] | IC50 [2] [µM] | SMILES | also measured
1 | 0.647 | – | CNC(=O)c1ccc(-c2cn(C)nc2-c2ccncc2)cc1 | –
2 | > 1 | – | CCc1c[nH]nc1-c1ccc(-c2cn(C)nc2-c2ccncc2)cc1 | –
3 | 0.788 | – | Cn1cc(-c2ccc(-c3cc[nH]c3)cc2)c(-c2ccncc2)n1 | –
4 | 0.0037 | 1.67 | c1cc(-c2nn(C3CCCNC3)cc2-c2ccc3c(c2)Cc2c[nH]nc2-3)ccn1 (configuration not stated) | –
5 | > 1 | – | Cn1cc(-c2ccc3c(c2)CCc2n[nH]cc2-3)c(-c2ccncc2)n1 | –
6 | 0.0014 | – | Cn1cc(-c2ccc3c(O)cccc3c2)c(-c2ccncc2)n1 | –
7 | > 1 | – | Cn1cc(-c2ccc(S(N)(=O)=O)cc2)c(-c2ccncc2)n1 | –
8 | 0.00066 | 0.396 | N[C@H]1CC[C@H](n2cc(-c3ccc4c(c3)Cc3c[nH]nc3-4)c(-c3ccncc3)n2)CC1 | –
9 | 0.0032 | 2.12 | F[C@H]1CCNC[C@H]1n1cc(-c2ccc3c(c2)Cc2c[nH]nc2-3)c(-c2ccncc2)n1 | –
10 | > 1 | – | Cn1cc(O)c(-c2ccncc2)n1 | –
11 | 0.328 | – | Cn1cc(-c2ccc3cc[nH]c3c2)c(-c2ccncc2)n1 | –
12 | 0.002 | 0.607 | O[C@@H]1CCC[C@H](n2cc(-c3ccc4c(c3)Cc3c[nH]nc3-4)c(-c3ccncc3)n2)C1 | –
13 | 0.077 | – | Cn1cc(-c2ccc3cc(O)ccc3c2)c(-c2ccncc2)n1 | –
14 | – | 0.23 | c1cc(-c2nn(C3CCNCC3)cc2-c2ccc3c(c2)Cc2c[nH]nc2-3)ccn1 | Ratio (Caco-2): 6.17; Papp A→B [3]: 1.88 ×10⁻⁶ cm/s
15 | 0.008 | 0.886 | CN1CCC(n2cc(-c3ccc4c(c3)Cc3c[nH]nc3-4)c(-c3ccncc3)n2)CC1 | –
16 | 0.861 | – | Cn1cc(-c2ccc3[nH]ccc3c2)c(-c2ccncc2)n1 | –
17 | 0.00125 | 0.672 | F[C@H]1CNCC[C@@H]1n1cc(-c2ccc3c(c2)Cc2c[nH]nc2-3)c(-c2ccncc2)n1 | –
18 | > 1 | – | Cn1cc(N)c(-c2ccncc2)n1 | –

Row | IC50 [1] [µM] | IC50 [2] [µM] | SMILES | also measured
19 | 0.0725 | 8.16 | CNCCn1cc(-c2ccc3c(c2)Cc2c[nH]nc2-3)c(-c2ccncc2)n1 | –
20 | 0.0032 | 1.54 | c1cc(-c2nn(C3CCCNCC3)cc2-c2ccc3c(c2)Cc2c[nH]nc2-3)ccn1 (configuration not stated) | –
21 | > 1 | – | Cn1cc(-c2ccc3[nH]ncc3c2)c(-c2ccncc2)n1 | –
22 | 0.005 | 0.619 | c1cc(-c2nn(C3CC4COCC(C3)N4)cc2-c2ccc3c(c2)Cc2c[nH]nc2-3)ccn1 (configuration not stated) | –
23 | 0.055 | – | Cn1cc(-c2ccc(-c3c[nH]nn3)cc2)c(-c2ccncc2)n1 | –
24 | 0.0229 | 1.52 | N[C@H]1CC[C@@H](n2cc(-c3ccc4c(c3)Cc3c[nH]nc3-4)c(-c3ccncc3)n2)CC1 | –
25 | 0.468 | – | Cn1cc(-c2cccc3[nH]ncc23)c(-c2ccncc2)n1 | –
26 | 0.0016 | 0.532 | F[C@@H]1CNCC[C@H]1n1cc(-c2ccc3c(c2)Cc2c[nH]nc2-3)c(-c2ccncc2)n1 (stereo in doubt; 41) | –
27 | 0.011 | – | Cn1cc(-c2ccc3c(c2)Cc2n[nH]nc2-3)c(-c2ccncc2)n1 | –
28 | 0.139 | – | Cn1cc(-c2ccc3cn[nH]c3c2)c(-c2ccncc2)n1 | –
29 | 0.0049 | 4.87 | O[C@@H]1CNCC[C@H]1n1cc(-c2ccc3c(c2)Cc2c[nH]nc2-3)c(-c2ccncc2)n1 | –
30 | 0.0046 | 4.37 | c1ccc(-n2cc(-c3ccc4c(c3)Cc3c[nH]nc3-4)c(-c3ccncc3)n2)cc1 | –
31 | 0.007 | – | Cc1c[nH]nc1-c1ccc(-c2cn(C)nc2-c2ccncc2)cc1 | –
32 | 0.0014 | 0.7 | F[C@@H]1CNCC[C@H]1n1cc(-c2ccc3c(c2)Cc2c[nH]nc2-3)c(-c2ccncc2)n1 (stereo in doubt; 38) | AUC [4]: 38800 ng·h/mL; AUC [5]: 5160 ng·h/mL; Ratio (Caco-2): 1.55; AUC [6]: 406 ng·h/mL; Vd [7]: 8.74 L/kg; AUC [8]: 13400 ng·h/mL; clearance [9]: 91.1 mL/min/kg; Papp A→B [3]: 11.4 ×10⁻⁶ cm/s
33 | 0.094 | – | Cn1cc(-c2ccc3c(c2)CNC3=O)c(-c2ccncc2)n1 | –
34 | 0.0038 | 0.407 | F[C@H]1CNCC[C@H]1n1cc(-c2ccc3c(c2)Cc2c[nH]nc2-3)c(-c2ccncc2)n1 | –
35 | 0.023 | – | Cn1cc(-c2ccc3c(c2)CCc2c[nH]nc2-3)c(-c2ccncc2)n1 | –

Row | SMILES | IC50 [1] [µM] | IC50 [2] [µM] | also measured
36 | c1cc(-c2nn(C3CC4CCC(C3)N4)cc2-c2ccc3c(c2)Cc2c[nH]nc2-3)ccn1 (configuration not stated) | 0.00057 | 0.262 | –
